Measurements: the supplement of paper PMC12076712

What was measured:
Assay in all cases: pIC50, kinobeads binding competition
Conditions in all cases: cell material: Jurkat lysate
UniProt P46734 = biological target: T1, UniProt P46734
T1 sequence (whole entry): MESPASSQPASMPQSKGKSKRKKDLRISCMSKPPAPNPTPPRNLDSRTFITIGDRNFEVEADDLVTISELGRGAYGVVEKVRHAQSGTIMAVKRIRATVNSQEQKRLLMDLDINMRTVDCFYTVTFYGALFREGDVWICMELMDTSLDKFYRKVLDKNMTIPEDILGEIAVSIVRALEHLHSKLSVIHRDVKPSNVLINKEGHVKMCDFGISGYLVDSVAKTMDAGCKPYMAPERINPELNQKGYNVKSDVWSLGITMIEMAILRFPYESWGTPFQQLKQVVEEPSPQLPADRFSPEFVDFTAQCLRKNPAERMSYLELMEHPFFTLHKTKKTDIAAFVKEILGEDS

ULK3 = biological target: T2, ULK3 (UniProt Q6PHR2)
T2 sequence (whole entry): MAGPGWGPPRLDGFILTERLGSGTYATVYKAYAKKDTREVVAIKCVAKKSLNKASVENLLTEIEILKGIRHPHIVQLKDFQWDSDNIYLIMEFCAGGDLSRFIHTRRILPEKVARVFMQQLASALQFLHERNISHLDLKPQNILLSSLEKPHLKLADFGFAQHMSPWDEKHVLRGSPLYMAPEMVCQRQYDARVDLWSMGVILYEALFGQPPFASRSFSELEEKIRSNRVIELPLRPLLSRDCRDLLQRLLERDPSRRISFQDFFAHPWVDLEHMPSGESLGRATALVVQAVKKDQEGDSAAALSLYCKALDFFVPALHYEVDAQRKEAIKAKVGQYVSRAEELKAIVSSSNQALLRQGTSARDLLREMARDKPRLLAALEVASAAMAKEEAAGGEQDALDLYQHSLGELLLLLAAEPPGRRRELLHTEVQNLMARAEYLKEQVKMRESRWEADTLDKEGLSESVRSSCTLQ

BMPR1A = BMPR1A (UniProt P36894)
UniProt O75582 = biological target: UniProt O75582
TYK2 = TYK2 (UniProt P29597)
UniProt O15111 = biological target: T3, UniProt O15111
T3 sequence (whole entry): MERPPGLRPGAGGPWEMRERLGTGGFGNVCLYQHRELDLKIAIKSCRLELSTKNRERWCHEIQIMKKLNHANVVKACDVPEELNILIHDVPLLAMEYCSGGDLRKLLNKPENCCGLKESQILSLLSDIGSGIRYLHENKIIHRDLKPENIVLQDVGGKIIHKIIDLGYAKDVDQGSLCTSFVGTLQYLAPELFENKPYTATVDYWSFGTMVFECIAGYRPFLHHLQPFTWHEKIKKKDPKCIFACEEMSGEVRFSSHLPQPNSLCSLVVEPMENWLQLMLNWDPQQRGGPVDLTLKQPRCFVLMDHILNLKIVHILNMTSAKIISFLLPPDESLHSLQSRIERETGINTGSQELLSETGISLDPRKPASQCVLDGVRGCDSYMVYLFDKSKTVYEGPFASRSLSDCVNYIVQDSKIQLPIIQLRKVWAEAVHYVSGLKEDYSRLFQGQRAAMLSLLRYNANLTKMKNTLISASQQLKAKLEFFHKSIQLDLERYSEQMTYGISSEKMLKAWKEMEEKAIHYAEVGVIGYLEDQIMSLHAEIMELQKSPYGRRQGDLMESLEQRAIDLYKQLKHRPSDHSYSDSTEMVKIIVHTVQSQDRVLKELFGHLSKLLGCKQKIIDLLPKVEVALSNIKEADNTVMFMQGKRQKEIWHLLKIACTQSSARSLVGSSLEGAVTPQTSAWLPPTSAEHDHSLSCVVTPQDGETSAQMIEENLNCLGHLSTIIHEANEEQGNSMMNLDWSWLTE

EPHB2 = biological target: T4, EPHB2 (UniProt P29323)
T4 sequence (whole entry): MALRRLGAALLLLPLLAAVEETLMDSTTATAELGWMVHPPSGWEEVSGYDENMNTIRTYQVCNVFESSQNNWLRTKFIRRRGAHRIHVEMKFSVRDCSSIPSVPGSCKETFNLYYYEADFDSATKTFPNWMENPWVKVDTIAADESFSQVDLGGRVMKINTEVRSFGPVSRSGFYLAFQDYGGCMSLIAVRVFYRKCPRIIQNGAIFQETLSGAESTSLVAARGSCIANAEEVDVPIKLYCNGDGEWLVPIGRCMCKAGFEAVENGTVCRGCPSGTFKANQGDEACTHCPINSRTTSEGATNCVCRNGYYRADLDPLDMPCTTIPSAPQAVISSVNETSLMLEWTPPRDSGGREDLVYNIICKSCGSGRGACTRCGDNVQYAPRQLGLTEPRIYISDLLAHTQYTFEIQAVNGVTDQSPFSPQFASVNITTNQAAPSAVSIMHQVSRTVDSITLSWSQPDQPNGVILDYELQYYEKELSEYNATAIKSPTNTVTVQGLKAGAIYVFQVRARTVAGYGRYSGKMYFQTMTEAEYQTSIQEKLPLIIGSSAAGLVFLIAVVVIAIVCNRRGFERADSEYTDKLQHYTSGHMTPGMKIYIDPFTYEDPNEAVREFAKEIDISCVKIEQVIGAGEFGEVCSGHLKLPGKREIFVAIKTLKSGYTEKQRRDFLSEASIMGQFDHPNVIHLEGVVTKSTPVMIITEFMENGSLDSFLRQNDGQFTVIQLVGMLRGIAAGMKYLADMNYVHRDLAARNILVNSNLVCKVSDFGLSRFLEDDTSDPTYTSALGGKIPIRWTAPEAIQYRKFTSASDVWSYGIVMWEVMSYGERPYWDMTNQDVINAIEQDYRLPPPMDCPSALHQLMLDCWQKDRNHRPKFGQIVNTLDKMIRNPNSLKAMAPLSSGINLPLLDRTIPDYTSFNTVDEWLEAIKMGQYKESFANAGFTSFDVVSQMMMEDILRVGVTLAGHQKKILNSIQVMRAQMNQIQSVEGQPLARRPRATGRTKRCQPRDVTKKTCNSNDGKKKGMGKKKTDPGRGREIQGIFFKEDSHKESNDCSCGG

AKT2 = AKT2 (UniProt P31751)
SRPK1 = SRPK1 (UniProt Q96SB4)

Measured: pIC50

BMPR1A, sequence (P36894 whole entry): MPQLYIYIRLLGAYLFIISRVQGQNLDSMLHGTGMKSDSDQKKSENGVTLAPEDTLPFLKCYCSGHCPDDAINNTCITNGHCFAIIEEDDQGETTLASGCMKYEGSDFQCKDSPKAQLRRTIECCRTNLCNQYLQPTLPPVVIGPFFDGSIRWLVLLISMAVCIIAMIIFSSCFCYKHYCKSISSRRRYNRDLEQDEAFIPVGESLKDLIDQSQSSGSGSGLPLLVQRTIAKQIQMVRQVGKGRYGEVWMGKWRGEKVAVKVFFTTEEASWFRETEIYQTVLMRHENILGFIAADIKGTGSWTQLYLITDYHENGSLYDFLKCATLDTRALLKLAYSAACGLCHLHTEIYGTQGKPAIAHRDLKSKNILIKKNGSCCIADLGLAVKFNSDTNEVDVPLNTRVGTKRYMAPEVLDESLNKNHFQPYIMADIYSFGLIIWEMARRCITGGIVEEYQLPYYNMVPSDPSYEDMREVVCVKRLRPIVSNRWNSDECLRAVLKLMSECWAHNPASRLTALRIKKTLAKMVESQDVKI
UniProt O75582, sequence (O75582 whole entry, looked up): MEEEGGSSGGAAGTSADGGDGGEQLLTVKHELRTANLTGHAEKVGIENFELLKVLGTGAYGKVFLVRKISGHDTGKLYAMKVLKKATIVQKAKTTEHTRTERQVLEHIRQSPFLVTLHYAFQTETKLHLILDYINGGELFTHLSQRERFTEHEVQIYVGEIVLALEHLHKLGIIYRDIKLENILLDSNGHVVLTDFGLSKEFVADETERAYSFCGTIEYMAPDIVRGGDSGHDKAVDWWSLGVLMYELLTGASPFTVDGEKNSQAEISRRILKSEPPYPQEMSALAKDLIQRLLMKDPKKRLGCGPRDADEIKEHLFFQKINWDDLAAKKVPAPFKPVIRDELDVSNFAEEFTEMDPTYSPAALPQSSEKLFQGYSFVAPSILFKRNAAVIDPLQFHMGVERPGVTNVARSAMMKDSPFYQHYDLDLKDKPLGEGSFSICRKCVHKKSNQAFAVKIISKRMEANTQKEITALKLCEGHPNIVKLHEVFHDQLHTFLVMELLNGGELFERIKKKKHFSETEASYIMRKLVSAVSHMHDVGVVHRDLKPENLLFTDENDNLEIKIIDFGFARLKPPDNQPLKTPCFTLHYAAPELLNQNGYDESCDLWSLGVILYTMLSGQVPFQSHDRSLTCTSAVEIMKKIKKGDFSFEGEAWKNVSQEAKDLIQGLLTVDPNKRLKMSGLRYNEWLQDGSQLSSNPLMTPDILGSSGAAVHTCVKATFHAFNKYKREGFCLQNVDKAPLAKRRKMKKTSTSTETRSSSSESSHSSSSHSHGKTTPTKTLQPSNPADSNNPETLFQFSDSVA
TYK2, sequence (P29597 whole entry): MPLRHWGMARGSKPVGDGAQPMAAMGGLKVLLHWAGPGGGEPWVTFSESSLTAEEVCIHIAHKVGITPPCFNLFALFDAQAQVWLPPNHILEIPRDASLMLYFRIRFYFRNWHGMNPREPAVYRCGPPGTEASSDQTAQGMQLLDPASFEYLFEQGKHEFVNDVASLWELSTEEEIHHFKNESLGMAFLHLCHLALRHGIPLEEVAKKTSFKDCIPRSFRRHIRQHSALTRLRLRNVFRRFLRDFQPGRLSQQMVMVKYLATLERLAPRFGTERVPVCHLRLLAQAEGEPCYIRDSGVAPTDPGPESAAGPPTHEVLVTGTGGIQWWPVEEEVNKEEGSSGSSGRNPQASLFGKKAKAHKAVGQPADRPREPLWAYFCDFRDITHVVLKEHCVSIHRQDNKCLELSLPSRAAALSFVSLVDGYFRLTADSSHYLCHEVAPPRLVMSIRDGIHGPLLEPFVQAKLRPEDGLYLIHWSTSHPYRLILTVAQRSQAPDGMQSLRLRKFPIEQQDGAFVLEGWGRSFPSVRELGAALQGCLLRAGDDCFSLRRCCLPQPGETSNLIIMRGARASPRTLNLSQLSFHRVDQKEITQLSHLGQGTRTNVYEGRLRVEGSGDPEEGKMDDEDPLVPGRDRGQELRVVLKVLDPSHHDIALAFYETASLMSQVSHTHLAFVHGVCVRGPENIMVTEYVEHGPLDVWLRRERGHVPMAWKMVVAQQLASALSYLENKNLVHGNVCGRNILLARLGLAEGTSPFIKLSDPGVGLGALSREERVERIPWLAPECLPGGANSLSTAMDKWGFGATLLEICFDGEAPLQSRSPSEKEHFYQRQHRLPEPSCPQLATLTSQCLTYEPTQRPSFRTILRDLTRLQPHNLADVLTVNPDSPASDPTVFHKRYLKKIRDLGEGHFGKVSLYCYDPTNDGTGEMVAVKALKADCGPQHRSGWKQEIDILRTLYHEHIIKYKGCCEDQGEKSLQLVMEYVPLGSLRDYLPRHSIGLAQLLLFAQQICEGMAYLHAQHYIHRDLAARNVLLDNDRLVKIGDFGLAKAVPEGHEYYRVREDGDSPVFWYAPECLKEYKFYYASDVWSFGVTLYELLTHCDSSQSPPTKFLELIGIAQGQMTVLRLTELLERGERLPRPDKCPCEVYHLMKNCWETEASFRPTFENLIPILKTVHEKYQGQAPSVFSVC
AKT2, sequence (P31751 whole entry): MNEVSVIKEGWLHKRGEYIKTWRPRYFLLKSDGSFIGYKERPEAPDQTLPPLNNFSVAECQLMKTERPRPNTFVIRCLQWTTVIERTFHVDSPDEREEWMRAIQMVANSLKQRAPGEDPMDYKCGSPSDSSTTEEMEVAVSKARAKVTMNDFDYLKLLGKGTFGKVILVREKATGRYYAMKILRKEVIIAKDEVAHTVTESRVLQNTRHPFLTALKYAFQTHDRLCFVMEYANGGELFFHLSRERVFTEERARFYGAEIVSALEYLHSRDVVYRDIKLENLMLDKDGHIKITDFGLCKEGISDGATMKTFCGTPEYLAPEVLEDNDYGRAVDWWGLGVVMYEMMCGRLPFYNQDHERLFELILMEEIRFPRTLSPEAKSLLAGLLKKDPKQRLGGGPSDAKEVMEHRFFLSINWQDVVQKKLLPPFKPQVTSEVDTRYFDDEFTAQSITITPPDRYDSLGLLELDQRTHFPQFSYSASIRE
SRPK1, sequence (Q96SB4 whole entry): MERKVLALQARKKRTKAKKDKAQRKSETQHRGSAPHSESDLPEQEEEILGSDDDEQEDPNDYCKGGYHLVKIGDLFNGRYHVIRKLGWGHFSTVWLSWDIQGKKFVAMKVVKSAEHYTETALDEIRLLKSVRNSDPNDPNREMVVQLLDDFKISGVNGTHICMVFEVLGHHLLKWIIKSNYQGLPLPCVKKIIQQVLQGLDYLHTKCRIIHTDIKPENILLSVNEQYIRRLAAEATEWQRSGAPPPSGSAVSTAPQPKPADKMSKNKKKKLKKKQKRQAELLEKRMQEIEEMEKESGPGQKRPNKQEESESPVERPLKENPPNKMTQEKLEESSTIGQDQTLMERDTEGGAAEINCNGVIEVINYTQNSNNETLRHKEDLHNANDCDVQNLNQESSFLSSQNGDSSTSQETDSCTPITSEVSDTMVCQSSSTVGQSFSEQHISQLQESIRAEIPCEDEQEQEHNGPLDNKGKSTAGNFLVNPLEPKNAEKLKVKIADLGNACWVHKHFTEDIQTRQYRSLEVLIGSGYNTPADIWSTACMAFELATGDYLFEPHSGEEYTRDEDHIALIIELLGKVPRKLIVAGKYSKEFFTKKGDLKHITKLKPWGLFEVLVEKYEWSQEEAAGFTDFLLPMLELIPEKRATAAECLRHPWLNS

CCc1cnn2c(NCc3ccc[n+]([O-])c3)cc(N3CCCC[C@H]3CCO)nc12 [dinaciclib]
< 4.52: all assays above
